Laboratory results: US20220298163A1, “BTK INHIBITORS WITH IMPROVED DUAL SELECTIVITY” (BEIGENE, LTD., priority 2017, published 2022)

How the values were obtained:
[1] = Rat pharmacokinetic study; format: in vivo, Male Sprague Dawley rats; conditions: for AUC(0-inf) / bioavailability / clearance / Cmax: male, Sprague Dawley, plasma, rat; for AUC(0-inf): IV 1 mg·kg^−1 / PO 5 mg·kg^−1 study, route not given; for bioavailability: oral bioavailability, PO 5 mg·kg^−1 vs IV 1 mg·kg^−1; for clearance: single IV 1 mg·kg^−1; for Cmax: single PO 5 mg·kg^−1
[2] = target: T1, phosphorylated Btk at Tyr223 (Homo sapiens, UniProt Q06187); assay: Btk pY223 cellular assay (HTRF, Ramos cells); format: cell-based; conditions: compound 3 hours, pervanadate or Na3VO4 stimulation, read-out: IC50 (nM) in cell Btk pY223
T1 construct: determine the endogenous levels of phosphorylated Btk at Tyr223; endogenous in cells; host or cells: Ramos cells (CRL-1596, ATCC)

EGFR = EGFR (Homo sapiens, UniProt P00533); assay: Biochemical kinase selectivity: IC50 determination of EGFR; conditions: for IC50: TR-FRET, 20 μM ATP; for Fold of EGFR/Btk: ratio of IC50 values
Tec = target: T2, Tec (Homo sapiens, UniProt P42680); assay: Biochemical kinase selectivity: IC50 determination of Tec; conditions: for IC50: TR-FRET, 280 μM ATP; for Fold of Tec/Btk: ratio of IC50 values
T2 sequence (P42680 1-631): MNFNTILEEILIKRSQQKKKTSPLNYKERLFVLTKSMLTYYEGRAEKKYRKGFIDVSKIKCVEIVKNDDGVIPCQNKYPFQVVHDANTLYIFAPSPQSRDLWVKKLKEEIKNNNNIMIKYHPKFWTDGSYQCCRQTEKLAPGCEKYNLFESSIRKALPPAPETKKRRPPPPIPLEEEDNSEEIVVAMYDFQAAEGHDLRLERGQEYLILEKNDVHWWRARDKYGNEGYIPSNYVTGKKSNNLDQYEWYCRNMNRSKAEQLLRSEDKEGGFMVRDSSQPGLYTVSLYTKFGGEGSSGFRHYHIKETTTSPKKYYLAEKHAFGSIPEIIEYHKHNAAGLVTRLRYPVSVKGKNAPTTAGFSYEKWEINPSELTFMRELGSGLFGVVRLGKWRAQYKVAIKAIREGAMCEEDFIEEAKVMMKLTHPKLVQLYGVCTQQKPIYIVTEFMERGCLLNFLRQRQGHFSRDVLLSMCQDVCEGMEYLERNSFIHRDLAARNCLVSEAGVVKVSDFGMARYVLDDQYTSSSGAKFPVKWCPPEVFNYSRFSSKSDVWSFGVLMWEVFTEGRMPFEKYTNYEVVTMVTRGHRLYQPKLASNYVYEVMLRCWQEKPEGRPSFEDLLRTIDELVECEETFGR

[3] = other Btk inhibitors, meeting abstract 2016; cited from earlier work
[4] = target: T3, Btk kinase (aa2-659, Carna Biosciences) (Homo sapiens, UniProt Q06187); assay: Btk kinase enzymatic assay (TR-FRET); format: biochemical; conditions: for IC50: TR-FRET, 30 μM ATP, compound incubated with kinase 60 minutes
T3 construct: purchased Carna Biosciences
T3 sequence (Q06187 2-659): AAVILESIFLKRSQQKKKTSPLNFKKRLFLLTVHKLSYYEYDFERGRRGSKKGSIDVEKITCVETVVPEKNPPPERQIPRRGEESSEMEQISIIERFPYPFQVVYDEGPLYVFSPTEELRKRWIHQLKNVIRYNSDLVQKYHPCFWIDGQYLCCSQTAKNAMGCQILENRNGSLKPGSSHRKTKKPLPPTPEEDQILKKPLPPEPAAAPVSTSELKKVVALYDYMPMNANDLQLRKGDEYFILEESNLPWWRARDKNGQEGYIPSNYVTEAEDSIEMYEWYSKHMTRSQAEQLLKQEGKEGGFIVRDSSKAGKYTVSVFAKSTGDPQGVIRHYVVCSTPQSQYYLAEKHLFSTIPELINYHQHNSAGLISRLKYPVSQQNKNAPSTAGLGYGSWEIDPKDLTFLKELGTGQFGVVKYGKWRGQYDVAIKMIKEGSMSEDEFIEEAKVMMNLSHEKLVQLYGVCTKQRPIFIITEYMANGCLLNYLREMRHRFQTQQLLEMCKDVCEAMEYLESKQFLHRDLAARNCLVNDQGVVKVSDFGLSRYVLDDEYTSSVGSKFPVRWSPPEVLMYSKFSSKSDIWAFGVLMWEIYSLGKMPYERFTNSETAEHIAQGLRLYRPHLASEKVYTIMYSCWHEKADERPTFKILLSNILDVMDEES

Chain of EGFR (P00533 25-1210): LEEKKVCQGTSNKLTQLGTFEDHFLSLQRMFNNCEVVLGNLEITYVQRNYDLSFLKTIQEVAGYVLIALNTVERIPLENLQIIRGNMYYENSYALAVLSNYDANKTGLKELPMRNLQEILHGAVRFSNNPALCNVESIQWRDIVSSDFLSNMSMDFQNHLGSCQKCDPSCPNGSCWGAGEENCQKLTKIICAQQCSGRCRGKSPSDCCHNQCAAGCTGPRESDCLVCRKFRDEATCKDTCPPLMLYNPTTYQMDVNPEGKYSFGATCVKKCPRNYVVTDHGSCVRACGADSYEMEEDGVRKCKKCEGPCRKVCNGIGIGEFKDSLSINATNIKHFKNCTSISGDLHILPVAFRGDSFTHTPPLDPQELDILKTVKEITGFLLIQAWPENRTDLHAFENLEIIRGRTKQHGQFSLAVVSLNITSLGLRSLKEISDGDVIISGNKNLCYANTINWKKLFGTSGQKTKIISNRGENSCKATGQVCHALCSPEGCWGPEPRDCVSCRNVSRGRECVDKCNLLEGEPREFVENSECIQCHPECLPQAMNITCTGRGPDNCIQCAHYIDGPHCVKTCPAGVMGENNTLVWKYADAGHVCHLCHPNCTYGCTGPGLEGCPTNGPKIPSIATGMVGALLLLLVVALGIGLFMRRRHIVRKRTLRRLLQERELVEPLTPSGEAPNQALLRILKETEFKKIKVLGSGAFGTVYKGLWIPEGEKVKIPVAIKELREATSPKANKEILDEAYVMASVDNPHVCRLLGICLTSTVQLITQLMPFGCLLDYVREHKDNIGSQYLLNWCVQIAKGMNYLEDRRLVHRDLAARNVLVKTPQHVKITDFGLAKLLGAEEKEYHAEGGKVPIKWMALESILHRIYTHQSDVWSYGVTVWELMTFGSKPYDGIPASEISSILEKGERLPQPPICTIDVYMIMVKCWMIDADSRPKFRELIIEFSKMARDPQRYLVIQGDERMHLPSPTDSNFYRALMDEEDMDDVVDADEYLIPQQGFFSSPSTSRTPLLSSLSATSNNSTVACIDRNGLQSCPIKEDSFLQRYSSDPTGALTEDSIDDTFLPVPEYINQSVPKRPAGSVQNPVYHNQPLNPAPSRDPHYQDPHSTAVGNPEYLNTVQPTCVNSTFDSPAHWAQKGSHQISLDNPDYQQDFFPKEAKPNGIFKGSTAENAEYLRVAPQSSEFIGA
T1 sequence (Q06187 whole entry): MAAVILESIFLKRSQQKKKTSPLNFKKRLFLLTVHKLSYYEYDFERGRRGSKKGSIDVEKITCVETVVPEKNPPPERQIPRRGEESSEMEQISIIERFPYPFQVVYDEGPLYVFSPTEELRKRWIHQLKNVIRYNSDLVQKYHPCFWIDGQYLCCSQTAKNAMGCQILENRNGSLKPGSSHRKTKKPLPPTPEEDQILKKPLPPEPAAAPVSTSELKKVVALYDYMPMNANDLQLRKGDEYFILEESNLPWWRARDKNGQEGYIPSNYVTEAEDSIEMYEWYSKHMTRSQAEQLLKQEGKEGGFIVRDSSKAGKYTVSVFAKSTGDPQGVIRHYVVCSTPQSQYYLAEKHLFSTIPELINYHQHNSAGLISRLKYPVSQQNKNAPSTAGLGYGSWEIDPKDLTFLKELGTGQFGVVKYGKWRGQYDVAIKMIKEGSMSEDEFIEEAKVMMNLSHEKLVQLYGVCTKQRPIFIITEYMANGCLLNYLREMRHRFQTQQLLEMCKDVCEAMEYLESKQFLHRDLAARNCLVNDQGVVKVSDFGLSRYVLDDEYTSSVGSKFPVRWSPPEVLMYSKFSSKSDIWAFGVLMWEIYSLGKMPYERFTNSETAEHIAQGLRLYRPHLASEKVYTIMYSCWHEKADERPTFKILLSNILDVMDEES

| AUC(0-inf) [1] | bioavailability [1] | clearance [1] | Cmax [1] | IC50 [2] | IC50 (EGFR) | IC50 (Tec) | Fold of EGFR/Btk (EGFR) | Fold of Tec/Btk (Tec) | IC50 [4] | affinity / inhibitory activity for Btk (in words) [4] | Compound | plasma clearance, Cmax, AUC and oral bioavailability compared to compound 167* ([1]; rat PK study, Table IV) | bleeding adverse event (in words) [3] |
| --- | --- | --- | --- | --- | --- | --- | --- | --- | --- | --- | --- | --- | --- |
| 1710 ng·h/mL | 73.7% | 42.8 mL/min/kg | 859 ng/mL |  |  |  |  |  |  |  | C=CC(=O)N1CCC(C2CCNc3c(C(N)=O)c(-c4cc(OC)c(C5CC5)c(OC)c4)nn32)CC1 (single isomer, unassigned) [Example A2a, (S or R)-7-(1-acryloylpiperidin-4-yl)-2-(4-cyclopropyl-3,5-dimethoxyphenyl)-4,5,6,7-tetrahydropyrazolo[1,5-a]pyrimidine-3-carboxamide] | lower plasma clearance values, higher Cmax, AUC and oral bioavailability |  |
| 65.1 ng·h/mL | 11.8% | 152 mL/min/kg | 60.4 ng/mL | 83.5 nM | 9.5 nM | 157 nM |  |  |  |  | C=CC(=O)Nc1ccccc1C1CCNc2c(C(N)=O)c(-c3cc(OC)c(OC)c(OC)c3)nn21 (centres unmarked) [167^#] |  |  |
|  |  |  |  | 66.8 nM | 1510 nM | 101 nM | 458 fold | 31 fold | 3.3 nM |  | C=CC(=O)N1CCC(C2CCNc3c(C(N)=O)c(-c4cc(OC)c(/C=C/c5ccccc5)c(OC)c4)nn32)CC1 (centres unmarked) [Example A41, (E)-7-(1-acryloylpiperidin-4-yl)-2-(3,5-dimethoxy-4-styrylphenyl)-4,5,6,7-tetrahydropyrazolo[1,5-a]pyrimidine-3-carboxamide] |  |  |
|  |  |  |  | 12.3 nM | 599 nM | 3.2 nM | 1762 fold | 9.4 fold | 0.34 nM |  | C#CC(=O)N1CCC(C2CCNc3c(C(N)=O)c(-c4cc(OC)c(C)c(OC)c4)nn32)CC1 (centres unmarked) [Example A50, 2-(3,5-dimethoxy-4-methylphenyl)-7-(1-propioloylpiperidin-4-yl)-4,5,6,7-tetrahydropyrazolo[1,5-a]pyrimidine-3-carboxamide] |  |  |
|  |  |  |  | 93.1 nM | 1910 nM | 157 nM | 324 fold | 27 fold | 5.9 nM |  | C=CC(=O)N1CC(C2CCNc3c(C(N)=O)c(-c4cc(OC)c(C)c(OC)c4)nn32)C1 (centres unmarked) [Example B3, 7-(1-acryloylazetidin-3-yl)-2-(3,5-dimethoxy-4-methylphenyl)-4,5,6,7-tetrahydropyrazolo[1,5-a]pyrimidine-3-carboxamide] |  |  |

Second part, the compound before the results:

| Compound | AUC(0-inf) [1] | bioavailability [1] | clearance [1] | Cmax [1] | IC50 [2] | IC50 (EGFR) | IC50 (Tec) | Fold of EGFR/Btk (EGFR) | Fold of Tec/Btk (Tec) | IC50 [4] | affinity / inhibitory activity for Btk (in words) [4] | plasma clearance, Cmax, AUC and oral bioavailability compared to compound 167* ([1]; rat PK study, Table IV) | bleeding adverse event (in words) [3] |
| --- | --- | --- | --- | --- | --- | --- | --- | --- | --- | --- | --- | --- | --- |
| CC#CC(=O)N1CCC[C@H]1c1nc(-c2ccc(C(=O)Nc3ccccn3)cc2)c2c(N)nccn12 [ACP-196] |  |  |  |  |  |  |  |  |  |  |  |  | Bleeding as a common adverse event (AE) |
| C=CC(=O)N1CCC([C@@H]2CCNc3c(C(N)=O)c(-c4ccc(Oc5ccccc5)cc4)nn32)CC1 [BGB-3111] |  |  |  |  |  |  |  |  |  |  |  |  | Bleeding as a common adverse event (AE) |
| C=CC(=O)N1CCC(C2CCNc3c(C(N)=O)c(-c4cc(OC)c(C(C)O)c(OC)c4)nn32)CC1 (centres unmarked) [Example A46, 7-(1-acryloylpiperidin-4-yl)-2-(4-(1-hydroxyethyl)-3,5-dimethoxyphenyl)-4,5,6,7-tetrahydropyrazolo[1,5-a]pyrimidine-3-carboxamide] |  |  |  |  | 258 nM | 3810 nM | 974 nM | 646 fold | 165 fold | 5.9 nM | high affinity for Btk |  |  |
| C=CC(=O)N1CC(C2CCNc3c(C(N)=O)c(-c4cc(OC)c(Br)c(OC)c4)nn32)C1 (centres unmarked) [Example B2, 7-(1-acryloylazetidin-3-yl)-2-(4-bromo-3,5-dimethoxyphenyl)-4,5,6,7-tetrahydropyrazolo[1,5-a]pyrimidine-3-carboxamide] |  |  |  |  | 45.7 nM | 1750 nM | 172 nM | 350 fold | 34 fold | 5 nM |  |  |  |
| C=CC(=O)N1CC2CNc3c(C(N)=O)c(-c4cc(OC)c(C)c(OC)c4)nn3C2C1 (centres unmarked) [Example C1, 7-acryloyl-2-(3,5-dimethoxy-4-methylphenyl)-5,5a,6,7,8,8a-hexahydro-4H-pyrazolo[1,5-a]pyrrolo[3,4-e]pyrimidine-3-carboxamide] |  |  |  |  | 49.6 nM | 536 nM | 380 nM | 158 fold | 112 fold | 3.4 nM | high affinity for Btk |  |  |
| CC#CC(=O)N1CC[C@@H](n2c(=O)n(-c3ccc(Oc4ccccc4)cc3)c3c(N)ncnc32)C1 [ONO-4059] |  |  |  |  |  |  |  |  |  |  |  |  | Bleeding as a common adverse event (AE) |
